Positions of bridges follow the written chain, without caps; N, C: chain ends. No end group written: not given here.
How the values were obtained:
[1] = system: S. aureus ATCC 13565; settings: observed previously; cited from earlier work
[2] = system: L. monocytogenes strains (ATCC 43256, ATCC 19116, and Pat Type 1); assay: Selectivity of the biosensor assay, Listeria strains; assay type: binding, Listeria monocytogenes; settings: 10^4 cells/10 μL; control sample (water) 12000±2000
Protocol: (§1) The selectivity of the biosensor assay was tested with three L. monocytogenes strains (ATCC 43256, ATCC 19116, and Pat Type 1), B. cereus ATCC 14579, S. aureus ATCC 29213, S. enterica, and E. coli DHα. Water (no bacteria) was used as a control. Another control used was with a negative peptide (24-mer) spot, and L. monocytogenes 19116 was used. The biosensor assay was performed as described above.

[3] = system: L. monocytogenes 19116; assay: Detection of Listeria monocytogenes in spiked milk sample (glass biosensor); assay type: binding; settings: whole milk (3.5% fat) diluted with water, 10^3 cells/μL
Protocol: Detection of Listeria monocytogenes in spiked milk sample. A spiked milk sample was prepared using milk (3.5% fat, 1 mL) diluted with water (9 mL). L. monocytogenes 19116 was added to the diluted milk to obtain a bacterial concentration of 10^4 cfu/10 μL. Water was used as a control. The biosensor assay was performed on the spiked milk sample as described above.

[4] = system: E. coli DHα; assay: Selectivity of the biosensor assay, E. coli; assay type: binding, Escherichia coli; settings: 10^4 cells/10 μL; one value for both Gram-negative bacteria; control 12000±2000
Protocol: as §1

[5] = system: L. monocytogenes ATCC 19116; assay: Glass biosensor assay: peptide concentration optimization and limit of detection; assay type: binding, Listeria monocytogenes
Protocol: Optimization of peptide concentration. The bio-sensor was optimized by testing different LeuA concentrations. The slide was spotted with 10 μL of varying peptide concentrations (0, 0.013, 0.025, 0.064, or 0.13 mM). The peptide spot was allowed to air dry for 20 min. Next, bacteria (L. monocytogenes ATCC 19116) was spotted at a constant concentration (10 μL, 10^4 cfu). After drying, the slides were dipped in MilIQ water for 10 seconds. Lastly AuNC (12 μl) was spotted to quantify the fluorescence intensity of the spots.
Sensitivity and selectivity of the biosensor. To obtain the limit of detection (LOD), the biosensor assay was performed with varying number of bacteria in 10 μL sample. An overnight culture of L. monocytogenes ATCC 19116 was diluted to obtain samples with 0, 200, 1000, 2000, and 10000 cfu/10 μL. A glass slide was prepared with peptide spots (Leu A, 0.13 mM, 10 μL) as descried above and bacteria (10 μL) were spotted on the peptide spot followed by AuNC labeling and fluorescence recording using Chemidoc imager.

[6] = system: S. aureus ATCC 29213; assay: Selectivity of the biosensor assay, S. aureus; assay type: binding, Staphylococcus aureus; settings: 10^4 cells/10 μL; control 12000±2000
Protocol: as §1

[7] = system: B. cereus ATCC 14579; assay: Selectivity of the biosensor assay, B. cereus; assay type: binding, Bacillus cereus; settings: 10^4 cells/10 μL; control 12000±2000
Protocol: as §1

[8] = system: L. monocytogenes ATCC 43256; assay: Detecting L. monocytogenes using AuNC on LeuA-spotted glass surface; assay type: binding, Listeria monocytogenes; settings: Leu A 10 μL 0.13 mM, 10^4 cells, AuNC 12 μL; AuNC alone 31860±11608, peptide + AuNC without bacteria 34352±1812
Protocol: Detecting L. monocytogenes using AuNC on glass surface. An aqueous solution of Leu A (10 μL, 0.13 mM) was spotted on a glass slide (˜4 mm diameter) in triplicate. The peptide spots were allowed to air dry (˜20 min). This was followed by spotting bacteria L. monocytogenes ATCC 43256 (10 μL, 10^4 cells) or no bacteria (10 μL water) on top of the peptide spot. The glass slide was then dipped in MilIQ water for 10 seconds to remove all non-bound bacteria. The slide was allowed to air dry and finally AuNC (12 μL) was deposited on each spot. AuNC (12 μL) alone was also spotted as a control. The mean fluorescence intensity was recorded using Chemidoc imager. The experiment was repeated three times.

[9] = system: Listeria innocua ATCC 33091; assay: Detection of bacteria using AuNC on LeuA-conjugated PVDF membrane; assay type: binding; settings: 5000 cfu in 500 μL water; baseline without bacteria 3880
Excerpt: Detection of bacteria using AuNC on membrane. A low-fluorescence polyvinylidene difluoride (PVDF) membrane (Thermo Scientific) was cut into 3 small circular pieces (˜0.75 cm radius). The circular membrane was placed on a membrane holder which was connected to a side arm Erlenmeyer flask with vacuum. Each membrane was first washed with copious amount of water by allowing water to filter through the membrane using a gentle vacuum. Membranes 1 and 2 were then conjugated with peptide LeuA by delivering 100 μL peptide solution (0.012 mM). The peptide was allowed to bind the membrane for ˜20 minutes and then excess, unbound peptide was removed by vacuum. Next, the peptide-conjugated membranes were exposed to samples with bacteria (5000 cfu Listeria innocua ATCC 33091 in 500 μL water; membrane 1) or without bacteria (500 μL water; membrane 2). […] Excess AuNC was removed by vacuum and the membrane was allowed to dry for ˜15-20 mins before fluorescence imaging. The fluorescence of each membrane was read using BioRad Imager (FIG. 12). […] The fluorescence for the peptide-conjugated membrane alone (no bacteria; membrane 2) could be due to the binding of AuNC to the peptide. This represents baseline fluorescence (3880) and any increase in fluorescence from baseline represents the presence of bacteria as shown in FIG. 12. […]

[10] = system: L. monocytogenes Type I; assay: Bioactivity agar plate assay (zone of inhibition); assay type: cell-based, Listeria monocytogenes; settings: peptide 2.3, 0.23, 0.023 mM, 10 μL spots; 37° C., 24 hours
Protocol: Bioactivity. LeuA and negative peptide were checked for activity using agar plate inoculated with L. monocytogenes Type I. Briefly, a TSB agar plate was spotted with different concentrations of peptide (2.3, 0.23, and 0.023 mM, dissolved in water) with a spot volume of 10 μL. Then the 6 mL soft agar inoculated with 60 μL L. monocytogenes (overnight culture, undiluted) was plated over the TSB agar. The plate was incubated at 37° C. and zone of inhibition was checked after 24 hours.

[11] = system: S. enterica Serovar Enteritidis; assay: Selectivity of the biosensor assay, S. enterica; assay type: binding, Salmonella enterica; settings: 10^4 cells/10 μL; one value for both Gram-negative bacteria; control 12000±2000
Protocol: as §1

[12] = system: L. monocytogenes species; settings: against L. monocytogenes species; cited from earlier work
[13] = system: L. monocytogenes ATCC 19116; assay: LeuA-conjugated PVDF membrane assay: sample volumes and limit of detection; assay type: binding, Listeria monocytogenes
Protocol: Detection of L. monocytogenes from different sample volumes. Six circular membranes conjugated with peptide LeuA were prepared as described above. Peptide-conjugated membranes were exposed to three samples of different volumes (500 μL, 1 mL, and 5 mL) each containing same number of L. monocytogenes ATCC 19116 (2000 cfu). Membranes were also exposed to samples (water) with no bacteria (500 μL, 1 mL, and 5 mL) to serve as controls. After passing the samples through the membranes, all membranes were reacted with AuNC (500 μL, 100 μL stock diluted to 500 μL with water) to label the bound bacteria. Excess AuNC from each membrane was removed by vacuum and the membrane was allowed to dry for ˜15-20 mins before fluorescence imaging. The fluorescence of each membrane was read using a BioRad Imager. […] The increase in fluorescence was calculated using the following equation. [formula] Estimation of the limit of detection for L. monocytogenes. Four circular membranes conjugated with peptide LeuA were prepared as described above. The membranes were exposed to samples (500 μL) containing different numbers of L. monocytogenes ATCC 19116 (0, 200, 2000, or 20000 CFU). The rest of the assay was performed as described above.

| Substance | binding of bacteria to peptide [1] | fluorescence of AuNC-labeled bound bacteria [2] | fluorescence of spiked milk sample compared to the milk alone [3] | fluorescence of AuNC-labeled bound bacteria [4] | fluorescence of bound bacteria ([5]; 2000 cfu bacteria per spot) | fluorescence of bound bacteria ([5]; 10000 cfu bacteria per spot) | fluorescence of bound bacteria (highest) ([5]; peptide concentration 0.13 mM, 10 μL, bacteria 10^4 cfu/10 μL) | fluorescence of AuNC-labeled bound bacteria [6] | fluorescence of AuNC-labeled bound bacteria [7] | MFI of AuNC-labeled bacteria bound to peptide [8] | fluorescence of membrane [9] | activity in bioactivity plate assay (zone of inhibition) [10] | fluorescence of AuNC-labeled bound bacteria [11] | minimum inhibitory concentration (MIC) [12] | percent increase in fluorescence ([13]; 200 cfu in 500 μL) | percent increase in fluorescence ([13]; 2000 cfu in 500 μL) | percent (%) increase in fluorescence ([13]; 2000 cfu in 500 μL, 1 mL and 5 mL) | percent increase in fluorescence ([13]; 20000 cfu in 500 μL) |
| --- | --- | --- | --- | --- | --- | --- | --- | --- | --- | --- | --- | --- | --- | --- | --- | --- | --- | --- |
| Leucocin A (KYYGNGVHCTKSGCSVNWGEAFSAGVHRLANGGNGFW-OH; disulfide 9-14 (inferred)) [LeuA] | Low binding | 28000-33000 | significantly higher fluorescence | 12000±800 | 31473±2932 | 30842±4696 | 21275±2177 | 18000±2100 | 13000±1600 | 62390±5975 | 7776 | active | 12000±800 | low nanomolar range | 11.7% | 15.9% | 15-20% | 26.1% |
| negative control (20-mer) peptide: short sequence (20-mer; SEQ ID NO:2) derived from LeuA known not to bind L. monocytogenes (NGVHATKSGASVNWGEAFSA; Control Leucocin A fragment) [reference compound] | – | 12164±2937 | – | – | – | – | – | – | – | – | – | inactive | – | – | – | – | – | – |
